Measured values reported in patent publication US9226912B2, “Acetyltanshinone IIA (ATA) as anticancer agent” (Nanyang Technological University, priority 2011, dated 2016).
“Also recorded” adds a separate entry of the source. Read-outs that look alike come from different tables or passages of the source.

Assays:
[1] = test system: Bax and cytochrome c in MDA-MB-435 cells; experiment: Bax translocation and cytochrome c release, cell fractionation Western blot and immunofluorescence; assay type: cell-based, human; details: 5 μM ATA, 24 h, normalized to control 1.0
Description: The concentration of ATA and PG were 5 μM and 20 μM, respectively. […] Scale bar=10 μm.
The value of CY/MT represents the ratio of integrated band intensity of cytosol fraction (CY) over corresponding integrated band intensity of mitochondrial fraction (MT). The ratio was normalized by the control group. Two proteins were used as internal markers to judge the quality of cell fractionation experiment: Cox IV for mitochondria and β-tubulin mainly for cytosol.
The subcellular localization changes of Bax and cytochrome c during ATA-induced apoptosis were first examined using immunofluorescence staining.
(§1) It was further tested, whether PG could prevent ROS generation after ATA treatment.

[2] = test system: HER2 protein in BT474 cells; experiment: HER2 protein level by Western blotting; assay type: cell-based, human; details: 6 μM ATA or 1 μM fulvestrant
Description: Cells were treated with 6 μM ATA or 1 μM fulvestrant for indicated times and analyzed by Western blotting.

[3] = test system: xenografted tumors derived from human melanoma MDA-MB-435 cells; experiment: Xenografted tumors in nude mice; assay type: in vivo; details: 30 mg/kg, 3×/week intraperitoneal, four weeks
Description: ATA (▴ 30 mg/kg), etoposide (▪ ETS, 20 mg/kg) and vehicle control (◯) were injected into mice 3×/week via intraperitoneal injection. Average tumor size (A) and mice body weight (B) were measured from five mice.
The anti-tumour effect of ATA was examined in nude mice (FIG. 13 and FIG. 14) carrying solid tumours generated by injecting human melanoma MDA-MB-435 cells into the mice subcutaneously. The tumour size and mouse body weight were monitored over a period of four weeks.

T47D = experiment: Growth inhibition at 72 h by MTT assay; assay type: cell-based; details: T47D (ER+)
MCF-7 cells = experiment: Combinatorial effect of ATA with paclitaxel, MTT assay; assay type: cell-based; details: Homo sapiens, read-out: cell growth inhibition rate
Description: The effect was determined by measuring the rates of cell growth inhibition using MTT assay. (* p<0.01, compared with cells treated with either paclitaxel alone or ATA alone).
The inventors of the present invention have shown for the first time that ATA can increase the cytotoxic effect of paclitaxel. In the tests (FIG. 16) with five concentrations of ATA at 10, 5, 2.5, 1.25, 0.625 μM and five concentrations of paclitaxel at 1000, 100, 10, 1, 0.1 nM were used.

MCF-10A = experiment: IC50 and LC50 of ATA at 48 h; assay type: cell-based; details: Homo sapiens, MCF-10A non-cancer breast cell line
[4] = IC50 and LC50 of ATA at 48 h; assay type: cell-based; details: human, MCF-10A cells (non-cancer breast cell line), MCF-10A non-cancer breast cell line
ROS in MDA-MB-435 cells = experiment: ROS generation and its prevention by PG; assay type: cell-based, human; details: MDA-MB-435 cells
Description: (A) PG prevented ATA-induced cell death. Three concentrations of PG were tested for their protective effects on ATA-induced cell death. The cell viability was measured by SRB assay. (* p<0.01). (B) PG protected ROS generation caused by ATA treatment. […] All the experiments were performed at least three times. The results presented in this figure are the average of three experiments. Error bar represents standard deviation. Scale bar=20 μm.
as §1

MDA-MB-231 = experiment: Growth inhibition at 72 h by MTT assay
HeLa = experiment: IC50 and LC50 of ATA at 48 h; assay type: cell-based; details: Homo sapiens, HeLa cervical cancer
[5] = Solubility relative to TIIA; assay type: physicochemical; details: in both DMSO and PBS
Description: A mixture of TIIA (2.04 g), sodium acetate (2.5 g), acetic anhydride (18 ml), and anhydrous zinc powder (6 g) is stirred in a boiling water bath for 3 h, then immediately filtrated by using a vacuum filtration system to remove the insoluble residues. The filtrate is diluted with water (300 ml), and then heated to boil. The resulting solution is cooled at room temperature and filtered to give a solid product (1.80 g). The product can be further crystallized using 95% ethanol to produce the final product (1.51 g) acetyltanshinone IIA (ATA) with chemical designation of 1,6,6-trimethyl-8,9-dihydro-10,11-diacetoxyl-7H-naphtho[1,2-g][1]benzofuran (FIG. 2). ATA appeared in white color, which is totally different from its original red color.

HL-60 = experiment: IC50 and LC50 of ATA at 48 h; assay type: cell-based; details: Homo sapiens, HL-60 leukemia
MCF-7 [6] = experiment: Growth inhibition at 72 h by MTT assay
[7] = test system: Four types of cancer cells; experiment: ATA versus TIIA, cell viability by MTT assay after 48 h; assay type: cell-based; details: 10 μM or 20 μM
Description: Four types of cancer cells were treated with ATA or TIIA at either 10 μM or 20 μM and the cell viability was measured by MTT assay after 48 h of compound addition. * p<0.01.

SiHa = experiment: IC50 and LC50 of ATA at 48 h; assay type: cell-based; details: Homo sapiens, SiHa cervical cancer
MCF-7 [8] = experiment: IC50 and LC50 of ATA at 48 h; assay type: cell-based; details: Homo sapiens, MCF7, MCF-7 breast cancer
SK-BR-3 = experiment: IC50 and LC50 of ATA at 48 h; assay type: cell-based; details: Homo sapiens, SK-BR-3 breast cancer
MCF-7/HER2 cells = experiment: Growth inhibition of HER2 over-expressing cells at 72 h; assay type: cell-based
Description: The efficacy of ATA on MCF-7 cells with over-expressed HER2 protein was investigated.

SMILES: CC(=O)Oc1c(OC(C)=O)c2c(C)coc2c2ccc3c(c12)CCCC3(C)C [ATA, 1,6,6-trimethyl-8,9-dihydro-10,11-diacetoxyl-7H-naphtho[1,2-g][1]benzofuran]
- ratio of Bax level in the cytosol to that in the mitochondria [1]: < 0.1
- ratio of cytochrome c level in cytosol to that in mitochondria [1]: 7.5
- level of HER2 protein [2]: can reduce the level of HER2 protein; also recorded: reduced the level of ERα and HER2
- average body weight versus control mice [3]: did not significantly decrease
- tumour growth [3]: significant inhibition on tumour growth
- IC50 (T47D; Homo sapiens): 1.4 ± 0.2 µM
- IC50 ratio of tamoxifen/ATA (T47D): 6.7
- inhibition at 2.5 µM (MCF-7 cells; MCF7, 2.5 μM ATA in combination with paclitaxel 1 nM): ~89%
- inhibition at 2.5 µM (MCF-7 cells; MCF7, ATA alone at 2.5 μM): 71%
- IC50 (MCF-10A): 6.64 µM
- CC50 at 48 h [4]: 16.3 ± 4.46 µM
- time of maximum ROS level after ATA addition (ROS in MDA-MB-435 cells): 2 h
- IC50 (MDA-MB-231; Homo sapiens, MDA-MB-231, 72 h): 7.98 ± 0.18 µM
- inhibition at 3.13 µM (MDA-MB-231; Homo sapiens, MDA-MB-231, 72 h, read-out: growth inhibition rate): 32.3%
- IC50 value at 72 h lower in ER-positive than ER-negative cells (MDA-MB-231; MCF-7 and T47D versus MDA-MB-231): 5.4-5.7 fold
- IC50 ratio of tamoxifen/ATA (MDA-MB-231; MDA-MB-231 (ER−), 72 h): 2.7
- Ratio of ER−/ER+ 231/MCF-7 (MDA-MB-231; ratio of IC50 at 72 h, MDA-MB-231 over MCF-7): 5.4
- Ratio of ER−/ER+ 231/T47D (MDA-MB-231; ratio of IC50 at 72 h, MDA-MB-231 over T47D): 5.7
- CC50 (HeLa): 10.9 ± 1.45 µM
- IC50 (HeLa): 1.39 ± 0.13 µM
- higher solubility than TIIA [5]: 22 fold
- CC50 (HL-60): 8.53 ± 0.2 µM
- IC50 (HL-60): 2.98 ± 0.37 µM
- IC50 (MCF-7 [6]; Homo sapiens, MCF7, 72 h): 1.48 ± 0.24 µM
- inhibition at 3.13 µM (MCF-7 [6]; Homo sapiens, MCF7, 72 h, read-out: growth inhibition rate): 94.7%
- IC50 ratio of tamoxifen/ATA (MCF-7 [6]; MCF-7 (ER+), 72 h): 6.8
- higher growth inhibition rate than tamoxifen (MCF-7 [6]; MCF-7, three tested drug concentrations, 72 h, MTT): 57-74%
- less ATA needed than tamoxifen to inhibit 50% of ER-positive cell growth (MCF-7 [6]; two ER-positive breast cancer cell lines, 72 h): 6.7 fold
- growth inhibition effect compared with TIIA [7]: stronger growth inhibition effect than TIIA
- CC50 (SiHa): 12.3 ± 0.68 µM
- IC50 (SiHa): 1.96 ± 0.49 µM
- CC50 (MCF-7 [8]): 7.64 ± 0.3 µM
- IC50 (MCF-7 [8]): 1.39 ± 0.64 µM
- IC50 (SK-BR-3): 0.29 µM
- CC50 (SK-BR-3; kill 50% of the cells): 5.1 ± 1.92 µM
- IC50 (MCF-7/HER2 cells; Homo sapiens, MCF7, MCF-7/HER2 cells, 72 h): 1 ± 0.23 µM
- sensitivity of MCF-7/HER2 cells compared with MCF-7 cells (MCF-7/HER2 cells; paclitaxel 1×10^−3 μM to 10 μM, ATA 0.78 μM to 6.25 μM): higher sensitivity to ATA
